Experiments:
[1] = high-purity CBD, background statement; cited from earlier work
[2] = tested on: glutamic acid; assay: Content of glutamic acid in homogenate of brain tissues of rats (kit method); type: in vivo, Wistar rats; settings: PTZ rats after 14 days, 100 mg/kg intragastric (positive drug = valproate)
Method: (§1) 5. Determination of Contents of γ-Aminobutyric Acid, Glutamic Acid, Glycine, and Aspartic Acid in Rat Brain Tissue by the Kit Method
(§2) The experimental procedures and methods were referred to the kit instructions.
(§3) The contents of excitatory amino acids (glutamic acid and aspartic acid) and inhibitory neurotransmitters (γ-aminobutyric acid and glycine) in the homogenate of brain tissues were determined by an ELISA kit.

[3] = tested on: tyrosine hydroxylase (TH) cells in substantia nigra (SubN); assay: Tyrosine hydroxylase (TH) cells in substantia nigra (SubN) by immunohistochemistry; type: in vivo, C57/BL6 mice; settings: MPTP mice, intragastric 100 mg/kg for 14 days (positive drug = amantadine 40 mg/kg)
Method: (§4) • (1) SPF-grade C57 mice aged 6-8 weeks were purchased and acclimatized for one week, and subsequently the modeling was started. • (2) MPTP (25 mg/kg) was intraperitoneally injected once a day for 7 consecutive days. The blank group was left untreated. • (3) After modeling, administration was started. […] The intragastric administration was performed once a day for 14 consecutive days. • (4) Behavioral test was first performed by balance beam test scoring.
5. Determination of Tyrosine Hydroxylase (TH) Cells in Substantia Nigra (SubN) by Immunohistochemistry
The tissue should be cut using sharp knives and scissors. When cutting a tissue mass, the tissue was cut by pulling backwards from the root of the knife. […] The prepared tissue mass was fixed in 10% formalin for 48 h.
The fixed tissue was washed with running water to remove residual fixing liquid and impurities. The tissue mass was dehydrated in stages with different concentrations of ethanol (50%, 70%, 85%, 95%, up to pure alcohol (absolute ethanol)), each stage for 2 h. Dehydration must be performed in a capped flask to prevent high concentrations of ethanol from absorbing moisture in the air, resulting in reduced concentrations and incomplete dehydration. The material to be preserved can remain in 70% ethanol when being dehydrated with it. For long-term preservation, an equivalent amount of glycerol can be added. […]

[4] = Solubility in water; type: physicochemical
From the text: ^1[…]=0.8 Hz, 1[…]=7.6 Hz, 2[…]=6.8 Hz, 3H).

[5] = tested on: Bcl-2; assay: WB detection of apoptosis-related protein Bcl-2 in hippocampal tissues of PTZ-kindling rats; type: in vivo, Wistar rats; settings: hippocampus at end of 14-day treatment, 100 mg/kg intragastric
Method: (§5) At the end of the experiment, the brains and hippocampi of the laboratory animals were collected and frozen at −80° C.
(§6) 4. WB Detection of Expression of Apoptosis-Related Proteins Bax and Bcl-2 in Hippocampal Tissues of Rats:
(§7) The hippocampal tissue was cut into small pieces, the lysis buffer (protease and phosphatase inhibitors added to the lysis buffer) was added at a ratio of 150-250 μL:20 mg, and the mixture was homogenized with a homogenizer until complete lysis. The sample obtained after the lysis was centrifuged at 12,000 g at 4° C. for 15 min. The supernatant was taken, subjected to protein quantification, and stored in a refrigerator at −80° C.
(§8) • (1) Standard curve plotting: a microplate was taken, and reagents were added according to the table below. […]
(§9) About 25 μg of the protein was loaded into each well, and the loading amount can be increased according to the experiment requirements. According to the results of protein quantification, the required protein was taken and a proper amount of sample loading buffer was added. […]

[6] = tested on: aspartic acid; assay: Content of aspartic acid in homogenate of brain tissues of rats (kit method); type: in vivo, Wistar rats; settings: PTZ rats after 14 days, 100 mg/kg intragastric (positive drug = valproate)
Method: as §1, §2, §3

[7] = tested on: Bax; assay: WB detection of apoptosis-related protein Bax in hippocampal tissues of PTZ-kindling rats; type: in vivo, Wistar rats; settings: hippocampus at end of 14-day treatment, 100 mg/kg intragastric, versus model group
Method: as §5, §6, §7, §8, §9

[8] = tested on: glycine; assay: Content of glycine in homogenate of brain tissues of rats (kit method); type: in vivo, Wistar rats; settings: PTZ rats after 14 days, 100 mg/kg intragastric (positive drug = valproate)
Method: as §1, §2, §3

[9] = tested on: γ-aminobutyric acid; assay: Content of γ-aminobutyric acid in homogenate of brain tissues of rats (kit method); type: in vivo, Wistar rats; settings: PTZ rats after 14 days, 100 mg/kg intragastric (positive drug = valproate)
Method: as §1, §2, §3

[10] = tested on: PTZ-kindling epileptic rats; assay: PTZ-kindling epilepsy model: seizure duration, Ono's grade, latency; type: in vivo, Wistar rats
Method: Wistar rats, SPF grade, weighing 240-260 g, aged 6-8 weeks, female, purchased from Shanghai Slac Laboratory Animal Co., Ltd. Feeding environment: the temperature was kept at 22±1° C., and the humidity was kept at 65%-70%, in a 12/12 hour light/dark illumination cycle, with free access to water.
After 1 week of acclimatization of all rats, modeling was started. A 1.75% PTZ solution was prepared with normal saline, and the prepared PTZ solution was injected intraperitoneally at a dose of 35 mg/kg. PTZ was injected once every other day, and behavioral changes of the rats were observed within 30 min after the PTZ injection, and the seizure grade was recorded.
During the experiment, after 11 consecutive injections of PTZ, the seizure grade was recorded. All rats had 5 consecutive recordings of grade 2 or above, and modeling for all rats was successful after 11 consecutive injections of PZT into all rats.
After the modeling was successful, the rats were randomly grouped. Treatment was started. All Wistar rats were weighed and doses for the intragastric administration were calculated.
Before the administration and on day 7 and day 14 after the administration, the prepared PTZ solution was injected intraperitoneally at a dose of 35 mg/kg 1 h after intragastric administration. Behavioral changes of the rats were observed within 30 min after the PTZ injection.
Behavioral seizure indexes before and after the administration were recorded and graded according to Ono's grading. The seizure latency, seizure grade and seizure duration were recorded.

[11] = tested on: dopamine; assay: Content of dopamine in striatum of the model of Parkinson's disease (kit method); type: in vivo, C57/BL6 mice; settings: MPTP mice; intragastric 100 mg/kg for 14 days (positive drug = amantadine 40 mg/kg)
From the text: After the mice were sacrificed quickly, the brains of the mice were taken and the cerebral palliums (CPs) of the mice were isolated. After exposing the brain striatum of the mice, the striatum was weighed and homogenized after adding PBS according to a proportion. The supernatant was isolated and detected for the content of dopamine in the brain striatum.

[12] = tested on: mouse model of Parkinson's disease established by the intraperitoneal injection of MPTP; assay: Behavioral balance beam score in MPTP model of Parkinson's disease; type: in vivo, C57/BL6 mice; settings: scale 0-5
Method: C57/BL6 mice, SPF grade, weighing 18-20 g, aged 6-8 weeks, male, purchased from Shanghai Slac Laboratory Animal Co., Ltd. Feeding environment: the temperature was kept at 22±1° C., and the humidity was kept at 65%-70%, in a 12/12 hour light/dark illumination cycle, with free access to water.
as §4
A beam of 80 cm long and 2.5 cm wide was horizontally fixed at a height of 10 cm from the table top, and subsequently, the animals were allowed to walk on the beam. […]

Compound: C=C(C)[C@@H]1CCC(C)=C[C@H]1c1c(O)cc(CCCCC)cc1O [CBD, 2-[(1R,6R)-3-methyl-6-(1-methylvinyl)-2-cyclohexen-1-yl]-5-pentyl-1,3-benzenediol]
- solubility in water [1]: almost insoluble in water

Compound: C=C(C)[C@@H]1CCC(C)=C[C@H]1c1c(O)cc(CCCCC)cc1OCC(=O)N[C@@H](CCSC)C(=O)[O-].[Na+] [Compound E1]
- Glutamic acid [2]: 0.14 ± 0.02 µmol/mg
- TH cell positive rate [3]: 16.92 ± 3.13 %
- solubility [4]: 27 mg/mL
- Bcl-2 protein expression in hippocampal tissues [5]: significantly higher than that in the model group
- Aspartic acid [6]: 58.10 ± 11.71 µmol/g
- Bax protein expression in hippocampal tissues [7]: significant down-regulation of Bax protein expression
- Glycine [8]: 0.67 ± 0.07 ng/µg
- γ-aminobutyric acid [9]: 771.17 ± 81.98 nmol/g
- Ono's grade before treatment ([10]; grade 0-6 (Table 1), baseline before treatment): 3.17 ± 0.41
- Ono's grade on day 7 of treatment ([10]; grade 0-6, intragastric 100 mg/kg (positive drug = valproate), day 7): 3.33 ± 0.52
- Ono's grade on day 14 of treatment ([10]; grade 0-6, intragastric 100 mg/kg (positive drug = valproate), day 14): 3.33 ± 0.52
- Duration on day 7 of treatment ([10]; intragastric 100 mg/kg (positive drug = valproate 100 mg/kg), PTZ 35 mg/kg i.p. 1 h after administration, day 7): 290.50 ± 66.93 s
- Duration on day 14 of treatment ([10]; intragastric 100 mg/kg (positive drug = valproate 100 mg/kg), PTZ 35 mg/kg i.p. 1 h after administration, day 14): 299.67 ± 39.25 s
- Latency on day 7 of treatment ([10]; intragastric 100 mg/kg (positive drug = valproate), day 7): 82.83 ± 20.90 s
- Latency on day 14 of treatment ([10]; intragastric 100 mg/kg (positive drug = valproate), day 14): 87.00 ± 20.96 s
- change in duration of seizure on day 14 as compared to day 7 of treatment ([10]; intragastric 100 mg/kg, PTZ-kindling rats): no change in the duration of seizure
- Latency before treatment ([10]; latency to seizure after PTZ 35 mg/kg i.p., baseline before treatment): 85.75 ± 21.45 s
- Duration before treatment ([10]; seizure duration after PTZ 35 mg/kg i.p., baseline before treatment): 359.83 ± 14.41 s
- DA, content of dopamine in striatum after treatment [11]: 0.45 ± 0.09 # ng/mg
- behavioral balance beam score, After modeling ([12]; after MPTP 25 mg/kg i.p. for 7 days, before treatment): 4.63 ± 0.52
- behavioral balance beam score, After treatment ([12]; intragastric 100 mg/kg once a day for 14 days (positive drug = amantadine 40 mg/kg)): 3.75 ± 0.89

Compound: C=C(C)[C@@H]1CCC(C)=C[C@H]1c1c(OCC(=O)N[C@@H](CCSC)C(=O)[O-])cc(CCCCC)cc1OCC(=O)N[C@@H](CCSC)C(=O)[O-].[Na+].[Na+] [Compound E2]
- solubility [4]: 200 mg/mL
